Assay results taken from patent publication US20090104154A1, “Composition and method for killing of tumours” (COMMONWEALTH SCIENTIFIC AND INDUSTRIAL RESEARCH ORGANISATION, priority 2002, published 2009).

Assays:
[1] = cited from earlier work
[2] = test system: PC3 tumours; assay: GDEPT on subcutaneous human PC3 tumours in nude mice; assay type: in vivo, mouse
Method: The ability of the PNP-based GDEPT system to suppress tumour growth in vivo was tested using subcutaneous human PC3 tumours grown in nude mice. Once the tumours were established (see example 1), on day 0 two groups of mice received one intratumoural injection of 1×10^10 VP of OAdV220. Two further groups received virus storage buffer only. Following this treatment all animals in one of the virus groups and all animals in one of the no-virus groups received a daily intraperitoneal (ip) injection of fludarabine (75 mg/m^2/day) for the next five days. Animal weights and tumour volumes were recorded twice weekly. The vector only group was compared to the nil virus, nil prodrug group. The group that received vector plus fludarabine was compared with the group that received fludarabine only. The OAdV220 vector alone caused a 30% reduction in tumour growth. However, the overall tumour growth suppression was increased to 71% when virus was used in conjunction with Fludarabine.
The cut off for response was arbitrarily taken as a tumour volume of 600 mm^3, half the maximum tumour volume (1200 mm^3) allowed before mice had to be culled because of tumour burden. By day 25, 13 of 14 tumours treated with OAdV220 plus fludarabine were in the responder category compared with 6 of 9 that received fludarabine only, and 9 of 12 which received virus only. […]

[3] = test system: RM-1 tumours; assay: GDEPT on subcutaneous tumours from RM-1 cells pre-transduced in vitro; assay type: in vivo, mouse; settings: day 15; Fludarabine alone 600 mg/m^2/day compared with nil treatment
Method: RM-1 cells (3×10^7) were transduced in culture with 1×10^3 or 1×10^2 VP/cell of OAdV220 or mock transduced with virus dilution buffer on day −1. On day 0, 12 mice/group were subcutaneously injected with 2.5×10^5 virus- or mock-transduced cells. Fludarabine was then administered from days 1-5 at 600 mg/m^2/day. Tumour volume and animal survival were monitored three times per week. A line of best fit was generated for each treatment curve and the ability to suppress tumour growth or increase animal survival was determined from the days taken to reach the midpoint of tumour growth or animal survival respectively.

[4] = test system: intraprostatic RM-1 tumours; assay: GDEPT ± lipid on intraprostatic RM-1 tumours; assay type: in vivo, mouse; settings: day 18; relative to the equivalent non-fludarabine treated tumours; fludarabine 600 mg/m^2/day ip
Method: In order to mimic clinical prostate cancer in an immunocompetent animal model, on day 1 RM-1 tumours were established in the prostate of C57BL/6 mice by intraprostatic injection of 5×10^3 RM-1 cells (˜50 μl cell suspension) per mouse. On day 4, these mice received an intraprostatic injection of 1×10^10 VP/tumour of OAdV220, either alone or formulated with 10 μM CS87 (see groups below). Fludarabine was then administered ip at 600 mg/m^2/day to appropriate groups from days 5-10. On day 6, pseudometastases were induced in the lungs by intravenous injection of 2.5×10^5 RM-1 cells (˜50 μl cell suspension) per mouse. Due to the limitations of surgery only 30 intraprostate injections can be performed per day. The experiment was therefore set up on 4 different days, although care was taken not to upset the timing of the experiment. The mice were weighed twice weekly, and sacrificed on day 18. Tissues were harvested for analysis (prostate volume, prostate weights).
Treatment groups were as follows:
Group A OAdV220 alone±fludarabine
Group B Nil treatment (storage buffer)±fludarabine
Group C OAdV220 plus […] CS87±fludarabine
Group D 10 μM CS87 alone±fludarabine

Compound | potency as a growth inhibitor relative to 6 MP [1] [fold] | responding tumours (tumour volume below 600 mm^3) ([2]; day 25) | responding tumours (tumour volume below 600 mm^3) ([2]; day 53) | reduction in mean tumour volume [3] [%] | decrease in tumour volume [4] [%] | decrease in tumour weight [4] [%]
Nc1nc(F)nc2nc[nH]c12 [2FA, 2-fluoroadenine] | ~100 |  |  |  |  | 
Nc1nc(F)nc2c1ncn2[C@@H]1O[C@H](CO)[C@@H](O)[C@@H]1O [Fludarabine, fludarabine] |  | 6 of 9 | 0/5 | 17 | 12 | 17
